Molecules are shown by their SMILES. Converted amounts (≈) assume the structure as drawn. “Also recorded” adds a separate entry of the source.

One data set deals with M21 melanoma cells. The experiment in a line: XTT cell proliferation assay. It counts as cell-based. The note with it: Homo sapiens, anti-proliferative effect, FIG. 6. Here is the method:
(§1) Cytotoxicity Assay. Cytotoxicity of ScA was assessed using the XTT cell proliferation assay. Briefly cells were plated on 96 well plates (5,000 per well) and incubated over night at 37° C. to allow for attachment and spreading. After 24 h, ScA was added from a DMSO stock, previously frozen at −80C as added directly from serial dilutions in DMSO at concentrations ranging from 100 uM to 100 fM. After 72 h, XTT (Aldrich Chemicals) was added to a final concentration of 250 ug/well. The plates were then incubated under standard tissue culture conditions until the control wells (DMSO) reached an OD value between 1.0-1.5. as measured at 450 nm using a microtiter plate reader. The cell viability-drug dilution profiles were obtained from sigma plots, and drug concentrations which inhibited growth by 50% were calculated from multiple runs. (IC50)

Data set [1] relates to Molt-4 T cell leukemia cells. The data set can be described thus: XTT cell proliferation assay. It counts as cell-based. The note with it: Homo sapiens, anti-proliferative effect, FIG. 6. As for the experimental part:
as §1

Another data set concerns TJK304 cells. The experiment in a line: XTT cell proliferation assay. The note with it: anti-proliferative effect, FIG. 6. The format is cell-based. As for the experimental part: as §1
The test system of data set [2] is pancreatic metastatic mouse carcinoma cells. The data set can be described thus: XTT cell proliferation assay. The format is cell-based. The settings on record: anti-proliferative effect, FIG. 6. As for the experimental part:
as §1

The test system of the next data set is NB7 neuroblastoma cells. The experiment in a line: XTT cell proliferation assay. The note with it: Homo sapiens, anti-proliferative effect, FIG. 6, caspase 8 deficient. It counts as cell-based. As for the experimental part: Cell lines. Cells and cell lines were maintained in either DMEM or RPMI supplemented with 10% FCS. The caspase-deficient NB7 neuroblastoma cells have been previously described (33). C8-deficient and reconstituted jurkat cells were provided by Dr. Steve Hedrick (UCSD). Silencing of Caspase-8 gene expression in the A549 cells was performed through the use of delivering shRNA in a lentiviral format. Briefly 293 T cells were transfected with caspase-8, (Open Biosystems) or scrambled (Addgene) shRNAs in pLK0.1 lentiviral vector, together with lentiviral packaging plasmids (PMLDL, VSV-G and RSV-REV) using fugene6. The ratio of target ShRNAs and packaging plasmids was ShRNA/PMLDL/VSV-G/RSV-REV, 10/10/6/4 μg. Lentiviral supernatants from 293 T cells were harvested after 48 hours and used to infect A549 cells. Viral constructs were incubated for 24 h with A549 cell lines prior to replacing media with selective media containing puromycin (1 μg/ml). […]
Cytotoxicity Assay. Cytotoxicity of ScA was assessed using the XTT cell proliferation assay. […] The plates were then incubated under standard tissue culture conditions until the control wells (DMSO) reached an OD value between 1.0-1.5. as measured at 450 nm using a microtiter plate reader. The cell viability-drug dilution profiles were obtained from sigma plots, and drug concentrations which inhibited growth by 50% were calculated from multiple runs. […]

The next data set concerns HUVEC cells. The data set can be described thus: endothelial cell tube formation on Matrigel. It counts as cell-based, human. As for the experimental part: Endothelial Cell Tube Formation. 96-well plates were coated with 200 uL matrigel per well and stored at 4° C. until use. HUVEC cells were harvested and cell suspensions were prepared at a density of 200,000/ml., and added at 100 ul per well to the plates. […] The plates were incubated at 37° C. under standard incubator conditions and the results were observed microcopically for tube formation.

Data set [3] concerns Transgenic Tg(fli1:EGFP) zebrafish embryos. The experiment in a line: blood vessel formation in zebrafish. The format is in vivo. The settings on record: for blood vessel growth and angiogenesis: 80 nM to 3 μM in the water, dose-dependent; for viability / acute toxicity to the fish: 24 hour period of the study. As for the experimental part: Zebrafish Experiments. Blood vessel formation in Zebrafish: Transgenic Tg(fli1:EGFP) zebrafish embryos were purchased from www.zfin.org as reported elsewhere (34). Adult fish and embryos were maintained according to “Zebrafish—A Practical Approach” (35). ScA compound in DMSO stock solution was diluted directly into the water and zebrafish intersegmental vessels were imaged using Nikon c1-si confocal microscope after the times specified. Raw image datasets were processed using IMARIS 3D™ image analysis software. All animal procedures were conducted in accordance with all appropriate regulatory standards under protocol #S06008 approved by the University of California San Diego (UCSD) Institutional Animal Care and Use Committee.

For data set [4], the system named is chick chorioallantoic membrane. The experiment in a line: bFGF-induced angiogenesis in chick chorioallantoic membrane. The format is in vivo. The settings on record: local introduction, 100 ng bFGF disks, 72 hours. As for the experimental part:
(§2) FIG. 31(A-F): Transgenic Tg(fli1:EGFP) zebrafish embryos in which GFP is expressed in endothelial cells were incubated without (A) or with increasing concentrations of ScA: 80 nM in FIG. 31(B), 160 nM in FIG. 31(C), 300 nM in FIG. 31(D) 1.6 μM in FIG. 31(E) or 3 μM in FIG. 31(F), and blood vessel morphology recorded by fluorescence microscopy. FIG. 31(G) Filter disks impregnated with 100 ng of bFGF were placed on the chorioallantoic membrane of eleven day old chicks to induce angiogenesis in the absence or presence of ScA, as shown. After 72 hours (h), disks were removed and the vascularity of the underlying chorioallantoic membrane determined by direct counting of branch points using a dissecting microscope. FIG. 31(H): NB7 neuroblastoma cells lacking caspase 8 (filled bar) or NB7-C8 cells reconstituted for caspase 8 expression (open bars) were seeded into ten day old chick chorioallantoic membranes to form tumors. After 72 hours, ScA was added topically to each growing tumor mass. Tumors were harvested and resected on day 8, and mass (wet weight) determined. Data shown is the mean±SD (N=8-12).
(§3) Chick Chorioallantoic membrane studies. The CAM studies were performed using 10 day old chick embryos as we've previously described (36). […]

Data set [5] deals with NB7-C8 neuroblastoma tumor cells. The data set can be described thus: neuroblastoma tumor growth on chick chorioallantoic membrane. It counts as in vivo. The note with it: 100 picomoles ScA topically after 72 hours, harvested day 8; p<0.002; listed as ScA. Here is the method:
as §2
Tumors were then treated topically with 100 picomoles of ScA, and allowed to grow a further five days before being harvested.
as §3

Data set [6] can be described thus: partition from liquid phase into 100 nanometer liposomes (nanosomes). It counts as physicochemical. As for the experimental part:
Preparation of Liposomes. Cholesterol:Dope:Dspc:Sca:Dspe-Mpeg (in 1:1:1:0.16:0.16 molar ratio) in chloroform were taken in 30 mL glass culture tubes, dried under a stream of nitrogen gas and vacuum-dessicated for a minimum of 6 h to remove any residual organic solvent. The dried lipid film was hydrated in sterile deionized water in a total volume of 1 mL for a minimum of 12 h. Liposomes were vortexed for 2-3 minutes to remove any adhering lipid film and sonicated in a bath sonicator (ULTRASONIK 28X™) for 2-3 minutes at room temperature to produce multilamellar vesicles (MLV). MLVs were then sonicated with a Ti-probe (using a BRANSON450™ sonifier at 100% duty cycle and 25 W output power) in an ice bath for 1-2 minutes to produce small unilamellar vesicles (SUVs) as indicated by the formation of a clear translucent solution. The solution was pressure filtered in sequence though 200 and then 100 nm nucelopore polycarbonate membranes to obtain liposome nanoparticles of 100 nm with a polydispersity factor of less than 0.1.

Data set [7] has as its system mouse neuro-2a neuroblastoma cells. The note with it: cytotoxicity; cited from earlier work.

Take `C=CC/C=C/N(C)C(=O)CCCCCCCC/C=C/[C@H](CSSC[C@@H](/C=C/CCCCCCCCC(=O)N(C)/C=C/CC=C)NC(C)=O)NC(C)=O` [somocystinamide A, Somocystinamide A]: the IC50 in the data set on M21 melanoma cells is 1280 nM; in data set [1] it was 600 nM; in the data set with TJK304 cells, 830 nM; in data set [2] it was 8 nM; with NB7 neuroblastoma cells, 810 nM; in [7], 1.4 µg/mL (≈ 1.84 µM). Besides, the “tube formation of HUVEC/matrigel” value in the data set with HUVEC cells (1 μM, 100 μM and 10 nM, FIG. 3) was “inhibits tube formation”. The “endothelial cell tube formation” value in the data set with HUVEC cells (48 hours, FIG. 30B, listed as ScA) is listed as “potently blocked endothelial cell tube formation; also recorded: endothelial cell tube formation was disrupted in dose-dependent manner”. The “blood vessel growth and angiogenesis” value in data set [3] was “potently inhibited angiogenesis”; in [3] (listed as ScA) it was “blocked blood vessel growth and angiogenesis”. Besides, the results for the “viability / acute toxicity to the fish” value in data set [3] and in data set [3] (listed as ScA) were “without acute toxicity” and “all of the fish remained viable”, respectively. Also, the growth factor-induced angiogenesis result in [4] is on record as “potently blocked growth factor-induced angiogenesis”. Moreover, the “tumor growth / tumor mass (wet weight)” value in data set [5] is listed as “significantly decreased; also recorded: inhibition of tumor growth selectively in the caspase 8-expressing tumor cells”. Moreover, in [6], the “interchelation of ScA within the nanosomes” value is recorded as “essentially complete within thirty minutes”.
